Reference: US20140205566A1, “CYCLIC NUCLEUOSIDE DERIVATIVES AND USES THEREOF” (NOVARTIS AG, priority 2012, published 2014)

What was measured:
[1] = Liver S9 stability determination; assay type: in vitro ADME; conditions: pooled liver S9 fraction; human liver S9 fraction, 1 μM compound, 37° C., up to 120 mins; read-out: liver S9 t1/2
From the text: The liver is the main organ of metabolism and contains a high concentration of drug metabolizing enzymes. Metabolic clearance, particularly hepatic, is one of the main determinants affecting systemic drug exposure following both oral and i.v. administration. To assess the ability of the compounds of the invention to reach a systemic circulation, the hepatic S9 fraction was chosen to test for stability of the compounds. Hepatic S9 fraction was obtained following centrifugation of homogenized liver tissue at 9,000 g. The hepatic S9 fraction is composed of both microsomal and cytosolic fractions and contains all the enzymes contained in microsomes plus additional phase I and phase II cytosolic enzymes.
Stock solutions of each tested compound (100 μM) were prepared in methanol by two subsequent 1:10 dilutions from 10 mM DMSO drug solutions, the final assay concentration was 1 μM. Frozen pooled liver S9 fraction was thawed from −20° C. and diluted in phosphate buffer (with and without NADPH) which was pre-warmed at 37° C. for 10 minutes. The reaction was initiated by addition of compound. Manual sample plates were incubated on a Thermo Max Q 2000 shaker placed in a temperature controlled Sartorius Certomat H hood set at 37° C. Sequential samples were removed at designated timepoints (0, 5, 15, 30, 60 and 120 mins) and quenched with 4 volumes of ice cold acetonitrile (containing internal standard, diazepam), centrifuged and supernatants reconstituted in water (acetonitrile:water, 50:50% v/v). Samples were then analyzed by LCMS/MS or LC-UV to assess parent depletion. In vitro half-life (t1/2) is calculated based on the rate of disappearance of compound from the reaction mixture at incubation timepoints up to 2 hours.

[2] = system: dengue virus; assay: Dengue EC50 determination: PBMC infected with virus/humanized 4G2 antibody complex, plaque reduction assay using BHK cells; assay type: cell-based; conditions: M.O.I of 1, 48 hours, plaque reduction in BHK cells
Procedure: Cryopreserved PBMC (Peripheral Blood Mononuclear Cell) cells were purchased from AllCells, LLC in USA. The cells were then thawed according to manufacturer's instructions and re-suspended in RPMI medium supplemented with 1% penicillin/streptomycin solution and 10% Fetal Calf serum. The cells were then counted and viability checked (viability should be at least 80%). After centrifuging and removing the media, the cells were diluted to 1×10^7 cells/mL in RPMI medium supplemented with 1% penicillin/streptomycin. 50 μl of the cells were then dispensed into 96-well tissue culture plate resulting in 5×10^5 cells/well. Next, virus with humanized 4G2 mixture was prepared for infection. Briefly, virus (2×10^7 pfu/ml) was mixed with humanized 4G2 antibody with the final antibody concentration of 0.38 μg/ml and incubated for 30 minutes at 4° C. to assist virus/antibody complex formation. The virus-antibody complex was then added to the PBMC at multiplicity of infection (M.O.I) of 1. The mixture of cells, virus and antibody was then further incubated in the plates at 37° C. for an hour in the humidified incubator for virus attachment and infection to take place. Serial diluted compounds were then added to the final media volume of 200 μl with 2% Fetal Calf Serum (final PBMC concentration would be 2.5×10^6 cells/mL). The plates were then incubated at 37° C., 5% CO2 for another 48 hours. The extent of the infection and compound inhibition was measured by plaque reduction assay using BHK cells [RD-2004-80036]. Briefly, supernatants of BHK cells grown in 24-well tissue culture (seeded at 200,000 cells/well the night before) were removed and subjected to 200 μl of diluted supernatants derived from PBMC infection containing serial diluted compounds. After incubating it for 37° C. for 1 hour in the incubator, the supernatants were removed and BHK cells overlaid with RPMI media containing 0.8% methyl-cellulose, 0.5% DMSO, 0.05% sodium bicarbonate, 25 mM HEPES, 2% fetal bovine serum and 1% penicillin/streptomycin solution. After additional 4 days of incubation at 37° C. incubator, the monolayer of BHK cells were fixed with 4% paraformaldehyde, stained with crystal violet and plaques counted. The dose response (n=2) is calculated by Prism from Graphpad software using a mathematical curve fitting analysis called nonlinear regression with four independent parameters. Briefly, the software generates the best fit curve using the formula F(x)=((A−D)/(1+((x/C)̂B)))+D. In this formula, x represents the concentration of the compound, A is the minimum value, B represents the steepness of the curve (sometimes known as Hill slope), C is the inflection point and D is the maximum value. EC50 was estimated as the concentration of the compound which will inhibit 50% of the plaque formation. A positive control (7-deaza-2′-C-acetylene-adenosine) was used to ensure the quality of the data.

CCOC(=O)[C@H](C)N[P@@]1(=O)OC[C@H]2O[C@@H](n3cnc4c(OCC)nc(N)nc43)[C@](C)(F)[C@@H]2O1 [Example 1, (S)-ethyl 2-(((2R,4aR,6R,7R,7aR)-6-(2-amino-6-ethoxy-9H-purin-9-yl)-7-fluoro-7-methyl-2-oxidotetrahydro-4H-furo[3,2-d][1,3,2]dioxaphosphinin-2-yl)amino)propanoate]
half-life at 1 μM [1]: 1.27 h | EC50 [2]: 230 nM

CCOc1nc(N)nc2c1ncn2[C@@H]1O[C@@H]2CO[P@](=O)(N[C@@H](C)C(=O)OC)O[C@H]2[C@@]1(C)F [Example 3, (S)-methyl 2-(((2R,4aR,6R,7R,7aR)-6-(2-amino-6-ethoxy-9H-purin-9-yl)-7-fluoro-7-methyl-2-oxidotetrahydro-4H-furo[3,2-d][1,3,2]dioxaphosphinin-2-yl)amino)propanoate]
half-life at 1 μM [1]: > 2 h | EC50 [2]: 460 nM

CCOc1nc(N)nc2c1ncn2[C@@H]1O[C@@H]2CO[P@@](=O)(N[C@H](C)C(=O)OC(C)C)O[C@H]2[C@@]1(C)F [Example 6, (R)-isopropyl 2-(((2S,4aR,6R,7R,7aR)-6-(2-amino-6-ethoxy-9H-purin-9-yl)-7-fluoro-7-methyl-2-oxidotetrahydro-4H-furo[3,2-d][1,3,2]dioxaphosphinin-2-yl)amino)propanoate]
half-life at 1 μM [1]: > 2 h | EC50 [2]: 370 nM

CCOc1nc(N)nc2c1ncn2[C@@H]1O[C@@H]2CO[P@@](=O)(N[C@@H](C)C(=O)OC(C)C)O[C@H]2[C@@]1(C)F [Example 2, (S)-isopropyl 2-(((2S,4aR,6R,7R,7aR)-6-(2-amino-6-ethoxy-9H-purin-9-yl)-7-fluoro-7-methyl-2-oxidotetrahydro-4H-furo[3,2-d][1,3,2]dioxaphosphinin-2-yl)amino)propanoate]
half-life at 1 μM [1]: 0.6 h | EC50 [2]: 72 nM
